Experimental data published in US20080194585A1, “Fungicidal Pyrazine Derivatives” (priority 2005, published 2008).
Marks after values point to notes of the source that are not given here.

What was measured:
Conditions in all cases: 100 = 100% disease control, 0 = no control
Pythium aphanidermatum = experiment: Test A: bluegrass pythium blight, preventive spray on bluegrass seedlings
Phytophthora infestans = experiment: whole plant or invertebrate; format: in vivo
Plasmopara viticola = experiment: Test D: grape downy mildew, spray after inoculation of grape seedlings; format: in vivo
Description: Upon removal, disease ratings were made. […] A dash (-) indicates no test results.

Botrytis cinerea = experiment: Test E: tomato botrytis, preventive spray on tomato seedlings
Rhizoctonia oryzae = experiment: Test G: turf brown patch, preventive spray on creeping bent grass seedlings
Description: (the causal agent of turf brown patch) and incubated in a saturated atmosphere at 27° C. for 24 h, and then moved to a growth chamber at 27° C. for 5 days, after which disease ratings were made.

Septoria tritici = experiment: Test J: wheat leaf blotch, preventive spray on wheat seedlings; format: in vivo
Description: A dash (-) indicates no test results.

[1] = test system: Colletotrichum orbiculare; experiment: Test B: cucumber Colletotrichum anthracnose, preventive spray on cucumber seedlings
[2] = test system: Erysiphe graminis f. sp. tritici; experiment: Test L: wheat powdery mildew, preventive spray on wheat seedlings
Septoria nodorum = experiment: Test H: wheat glum blotch, preventive spray on wheat seedlings
Description: (the causal agent of wheat glum blotch) and incubated in a saturated atmosphere at 20° C. for 48 h, and then moved to a growth chamber at 22° C. for 5 days, after which disease ratings were made.

[3] = test system: Puccinia recondita f. sp. tritici; experiment: Test K: wheat leaf rust, preventive spray on wheat seedlings
fusarium graminearium = experiment: Test I: wheat head scab, preventive spray on wheat seedlings
Description: (the causal agent of wheat head scab) and incubated in a saturated atmosphere at 20° C. for 72 h, and then moved to a growth chamber at 22° C. for 5 days, after which disease ratings were made.

Row | SMILES | Test A disease control rating (Pythium aphanidermatum; 200 ppm) [%] | Test F disease control rating (Phytophthora infestans; 200 ppm) [%] | Test D disease control rating (Plasmopara viticola; 200 ppm) [%] | Test E disease control rating (Botrytis cinerea; 200 ppm) [%] | Test G disease control rating (Rhizoctonia oryzae; 200 ppm) [%] | Test J disease control rating (Septoria tritici; 200 ppm) [%] | Test B disease control rating ([1]; 200 ppm) [%] | Test L disease control rating ([2]; 200 ppm) [%] | Test H disease control rating (Septoria nodorum; 200 ppm) [%] | Test K disease control rating ([3]; 200 ppm) [%] | Test I disease control rating (fusarium graminearium; 200 ppm) [%] | Test A disease control rating (Pythium aphanidermatum; 40 ppm (marked *)) | Test F disease control rating (Phytophthora infestans; 40 ppm (marked *)) | Test D disease control rating (Plasmopara viticola; 40 ppm (marked *)) | Test E disease control rating (Botrytis cinerea; 40 ppm (marked *)) | Test G disease control rating (Rhizoctonia oryzae; 40 ppm (marked *)) | Test J disease control rating (Septoria tritici; 40 ppm (marked *)) | Test B disease control rating ([1]; 40 ppm (marked *)) | Test L disease control rating ([2]; 40 ppm (marked *)) | Test H disease control rating (Septoria nodorum; 40 ppm (marked *)) | further results
1 | CCCNC(=O)c1nc(Cl)c(-c2c(F)cccc2F)n(CC(C)CC)c1=O (stereo not shown) [compound 299] | 69 | 90 | 40 | 99 | 31 | 100 | 40 | 95 | 99 | 100 | 100 |  |  |  |  |  |  |  |  |  | 
2 | CC(C)c1c(Cl)nc(-n2cccn2)c(=O)n1Cc1ccccc1 [compound 304] | 0 | 49 | 0 | 99 | 31 | 100 | 0 | 46 | 0 | 100 | 0 |  |  |  |  |  |  |  |  |  | 
3 | Cc1ccn(-c2nc(Cl)c(C(C)C)n(Cc3ccccc3)c2=O)n1 [compound 305] | 0 | 50 | 0 | 99 | 16 | 93 | 0 | 52 | 0 | 97 | 0 |  |  |  |  |  |  |  |  |  | 
4 | CC(C)c1c(Cl)nc(-n2cccn2)c(=O)n1-c1ccccc1 [compound 306] | 0 | 30 | 0 | 0 | 0 | 44 | 0 | 0 | 0 | 51 | 0 |  |  |  |  |  |  |  |  |  | 
5 | Cc1ccn(-c2nc(Cl)c(C(C)C)n(-c3ccccc3)c2=O)n1 [compound 307] | 0 | 84 | 0 | 88 | 0 | 20 | 0 | 0 | 0 | 51 | 49 |  |  |  |  |  |  |  |  |  | 
6 | COC(=O)Cn1c(-c2c(F)cccc2F)c(Cl)nc(-n2ccc(C)n2)c1=O [compound 308] |  |  |  |  |  |  |  |  |  |  |  | 0* % | 0* % | 0* % | 0* % | 0* % | 29* % | 0* % | 0* % | 0* % | Test K disease control rating ([3]; 40 ppm (marked *)): 9* %; Test I disease control rating (fusarium graminearium; 40 ppm (marked *)): 0* %
7 | CSCC(C)n1c(-c2c(F)cccc2F)c(Cl)nc(-n2ccc(C)n2)c1=O (stereo not shown) [compound 309] |  |  |  |  |  |  |  |  |  |  |  | 0* % | 0* % | 0* % | 99* % | 0* % | 5* % | 0* % | 0* % | 0* % | Test K disease control rating ([3]; 40 ppm (marked *)): 0* %; Test I disease control rating (fusarium graminearium; 40 ppm (marked *)): 0* %
8 | COCCn1c(-c2c(F)cccc2F)c(Cl)nc(-n2ccc(C)n2)c1=O [compound 310] |  |  |  |  |  |  |  |  |  |  |  | 0* % | 0* % | 0* % | 0* % | 0* % | 42* % | 0* % | 0* % | 64* % | Test K disease control rating ([3]; 40 ppm (marked *)): 74* %; Test I disease control rating (fusarium graminearium; 40 ppm (marked *)): 0* %
